# Data published in ChEMBL document CHEMBL1201862, “PubChem BioAssay data set” (2004).
#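 How tested: cells in 96-well plates exposed to compound for 48 hours at five concentrations. GI50: concentration for 50% inhibition of growth.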 The source made the active and inactive calls. Rule as the data show it: active = GI50 up to about 1.1 µM and inactive = higher.
# How the values were obtained:
# Experiment in all cases: NCI anticancer screen, dose series, 48 h
# 786-0 = tested on: 786-0
# A498 = tested on: A498
# A549 = tested on: A549
# ACHN = tested on: ACHN
# BT-549 = tested on: BT-549
# CAKI-1 = tested on: CAKI-1
# CCRF-CEM = tested on: CCRF-CEM
# COLO 205 = tested on: COLO 205
# DU-145 = tested on: DU-145
# EKVX = tested on: EKVX
# HCC 2998 = tested on: HCC 2998
# HCT-116 = tested on: HCT-116
# HCT-15 = tested on: HCT-15
# HL-60 = tested on: HL-60
# HOP-62 = tested on: HOP-62
# HOP-92 = tested on: HOP-92
# HT-29 = tested on: HT-29
# Hs-578T = tested on: Hs-578T
# IGROV-1 = tested on: IGROV-1
# K562 = tested on: K562
# KM12 = tested on: KM12
# LOX IMVI = tested on: LOX IMVI
# M14 = tested on: M14
# MCF7 = tested on: MCF7
# MDA-MB-435 = tested on: MDA-MB-435
# MDA-N = tested on: MDA-N
# MOLT-4 = tested on: MOLT-4
# Malme-3M = tested on: Malme-3M
# NCI-H226 = tested on: NCI-H226
# NCI-H23 = tested on: NCI-H23
# NCI-H460 = tested on: NCI-H460
# NCI-H522 = tested on: NCI-H522
# NCI/ADR-RES = tested on: NCI/ADR-RES
# OVCAR-3 = tested on: OVCAR-3
# OVCAR-4 = tested on: OVCAR-4
# OVCAR-5 = tested on: OVCAR-5
# OVCAR-8 = tested on: OVCAR-8
# PC-3 = tested on: PC-3
# RPMI-8226 = tested on: RPMI-8226
# RXF 393 = tested on: RXF 393
# SF-268 = tested on: SF-268
# SF-295 = tested on: SF-295
# SF-539 = tested on: SF-539
# SK-MEL-28 = tested on: SK-MEL-28
# SK-MEL-2 = tested on: SK-MEL-2
# SK-MEL-5 = tested on: SK-MEL-5
# SK-OV-3 = tested on: SK-OV-3
# SN12C = tested on: SN12C
# SNB-19 = tested on: SNB-19
# SNB-75 = tested on: SNB-75
# SR = tested on: SR
# SW-620 = tested on: SW-620
# T47D = tested on: T47D
# UACC-257 = tested on: UACC-257
# UACC-62 = tested on: UACC-62
# UO-31 = tested on: UO-31
# TK-10 = tested on: TK-10
# U-251 = tested on: U-251
structure (smiles),measurement,setting,value
COc1ccc(C)cc1Nc1nnc(-c2ccc(N)cc2)s1,GI50,786-0,70.1 µM (inactive)
same,GI50,A498,> 100 µM (inactive)
same,GI50,A549,7.53 µM (inactive)
same,GI50,ACHN,> 100 µM (inactive)
same,GI50,BT-549,> 100 µM (inactive)
same,GI50,CAKI-1,73.3 µM (inactive)
same,GI50,CCRF-CEM,41 µM (inactive)
same,GI50,COLO 205,80.5 µM (inactive)
same,GI50,DU-145,> 100 µM (inactive)
same,GI50,EKVX,2.65 µM (inactive)
same,GI50,HCC 2998,44.7 µM (inactive)
same,GI50,HCT-116,49.4 µM (inactive)
same,GI50,HCT-15,69.2 µM
same,GI50,HL-60,32.7 µM (inactive)
same,GI50,HOP-62,51.8 µM (inactive)
same,GI50,HOP-92,> 100 µM (inactive)
same,GI50,HT-29,48.3 µM (inactive)
same,GI50,Hs-578T,> 100 µM (inactive)
same,GI50,IGROV-1,> 100 µM (inactive)
same,GI50,K562,35.8 µM (inactive)
same,GI50,KM12,46.2 µM (inactive)
same,GI50,LOX IMVI,39.4 µM (inactive)
same,GI50,M14,> 100 µM (inactive)
same,GI50,MCF7,46.3 µM (inactive)
same,GI50,MDA-MB-435,33.3 µM (inactive)
same,GI50,MDA-N,30.4 µM (inactive)
same,GI50,MOLT-4,35.3 µM (inactive)
same,GI50,Malme-3M,> 100 µM (inactive)
same,GI50,NCI-H226,44.9 µM (inactive)
same,GI50,NCI-H23,88.1 µM (inactive)
same,GI50,NCI-H460,61.8 µM (inactive)
same,GI50,NCI-H522,60.3 µM (inactive)
same,GI50,NCI/ADR-RES,> 100 µM (inactive)
same,GI50,OVCAR-3,73.6 µM (inactive)
same,GI50,OVCAR-4,> 100 µM (inactive)
same,GI50,OVCAR-5,68.7 µM (inactive)
same,GI50,OVCAR-8,87.3 µM (inactive)
same,GI50,PC-3,96.4 µM (inactive)
same,GI50,RPMI-8226,31.5 µM (inactive)
same,GI50,RXF 393,62.4 µM (inactive)
same,GI50,SF-268,> 100 µM (inactive)
same,GI50,SF-295,43.4 µM (inactive)
same,GI50,SF-539,> 100 µM (inactive)
same,GI50,SK-MEL-28,> 100 µM (inactive)
same,GI50,SK-MEL-2,63.1 µM (inactive)
same,GI50,SK-MEL-5,24.5 µM (inactive)
same,GI50,SK-OV-3,> 100 µM (inactive)
same,GI50,SN12C,> 100 µM (inactive)
same,GI50,SNB-19,> 100 µM (inactive)
same,GI50,SNB-75,> 100 µM (inactive)
same,GI50,SR,38.4 µM (inactive)
same,GI50,SW-620,88.1 µM (inactive)
same,GI50,T47D,36.1 µM (inactive)
same,GI50,UACC-257,81.1 µM (inactive)
same,GI50,UACC-62,> 100 µM (inactive)
same,GI50,UO-31,42 µM (inactive)
Cc1cc2nc(-c3cc(C(C)(C)C)c(O)c(C(C)(C)C)c3)[nH]c2cc1C,GI50,786-0,0.867 µM (active)
same,GI50,A498,> 100 µM (inactive)
same,GI50,A549,2.44 µM (inactive)
same,GI50,BT-549,> 100 µM (inactive)
same,GI50,CCRF-CEM,1.39 µM (inactive)
same,GI50,COLO 205,2.9 µM (inactive)
same,GI50,DU-145,> 100 µM (inactive)
same,GI50,EKVX,> 39.1 µM (inactive)
same,GI50,HCC 2998,5.81 µM (inactive)
same,GI50,HCT-116,1.79 µM (inactive)
same,GI50,HCT-15,6.55 µM
same,GI50,HL-60,13.8 µM (inactive)
same,GI50,HOP-62,> 100 µM (inactive)
same,GI50,HOP-92,> 100 µM (inactive)
same,GI50,Hs-578T,17.2 µM (inactive)
same,GI50,IGROV-1,5.08 µM (inactive)
same,GI50,K562,3.18 µM (inactive)
same,GI50,KM12,3.39 µM (inactive)
same,GI50,LOX IMVI,4.16 µM (inactive)
same,GI50,M14,4.67 µM (inactive)
same,GI50,MDA-MB-435,> 23.3 µM (inactive)
same,GI50,MDA-N,3.49 µM (inactive)
same,GI50,MOLT-4,1.82 µM (inactive)
same,GI50,Malme-3M,> 100 µM (inactive)
same,GI50,NCI-H226,> 100 µM (inactive)
same,GI50,NCI-H23,> 34 µM (inactive)
same,GI50,NCI-H460,4.47 µM (inactive)
same,GI50,NCI-H522,> 100 µM (inactive)
same,GI50,NCI/ADR-RES,> 68.7 µM (inactive)
same,GI50,OVCAR-3,11.6 µM (inactive)
same,GI50,OVCAR-4,1.54 µM (inactive)
same,GI50,OVCAR-5,> 100 µM (inactive)
same,GI50,OVCAR-8,12.7 µM (inactive)
same,GI50,PC-3,7.19 µM (inactive)
same,GI50,RPMI-8226,12.8 µM (inactive)
same,GI50,RXF 393,> 100 µM (inactive)
same,GI50,SF-268,9.62 µM (inactive)
same,GI50,SF-295,> 100 µM (inactive)
same,GI50,SF-539,28.1 µM (inactive)
same,GI50,SK-MEL-28,> 100 µM (inactive)
same,GI50,SK-MEL-2,> 100 µM (inactive)
same,GI50,SK-MEL-5,> 71 µM (inactive)
same,GI50,SK-OV-3,> 100 µM (inactive)
same,GI50,SN12C,9.62 µM (inactive)
same,GI50,SNB-19,11.6 µM (inactive)
same,GI50,SNB-75,> 100 µM (inactive)
same,GI50,SR,1.06 µM (active)
same,GI50,SW-620,1.65 µM (inactive)
same,GI50,T47D,> 100 µM (inactive)
same,GI50,TK-10,> 22.3 µM (inactive)
same,GI50,U-251,2.64 µM (inactive)
same,GI50,UACC-257,> 52.2 µM (inactive)
same,GI50,UACC-62,0.979 µM (active)
same,GI50,UO-31,6.17 µM (inactive)
O=c1n(CCCN2CCOCC2)nc2n1-c1ccc3ccccc3c1SC2,GI50,786-0,16 µM (inactive)
same,GI50,A498,89.9 µM (inactive)
same,GI50,A549,50 µM (inactive)
same,GI50,BT-549,30.7 µM (inactive)
same,GI50,CAKI-1,49 µM (inactive)
same,GI50,CCRF-CEM,45.5 µM (inactive)
same,GI50,COLO 205,1.43 µM (inactive)
same,GI50,DU-145,87.9 µM (inactive)
same,GI50,EKVX,89.7 µM (inactive)
same,GI50,HCT-116,40.8 µM (inactive)
same,GI50,HCT-15,27.7 µM
same,GI50,HL-60,31.1 µM (inactive)
same,GI50,HOP-62,52.2 µM (inactive)
same,GI50,HOP-92,> 100 µM (inactive)
same,GI50,HT-29,19 µM (inactive)
same,GI50,Hs-578T,37.6 µM (inactive)
same,GI50,IGROV-1,> 100 µM (inactive)
same,GI50,K562,67.1 µM (inactive)
same,GI50,KM12,47.3 µM (inactive)
same,GI50,LOX IMVI,26.9 µM (inactive)
same,GI50,MCF7,76.7 µM (inactive)
same,GI50,MDA-MB-435,49 µM (inactive)
same,GI50,MDA-N,6.17 µM (inactive)
same,GI50,MOLT-4,39.3 µM (inactive)
same,GI50,NCI-H226,> 100 µM (inactive)
same,GI50,NCI-H460,30.2 µM (inactive)
same,GI50,NCI-H522,22.3 µM (inactive)
same,GI50,NCI/ADR-RES,67.5 µM (inactive)
same,GI50,OVCAR-3,95.7 µM (inactive)
same,GI50,OVCAR-4,56.9 µM (inactive)
same,GI50,OVCAR-5,66.7 µM (inactive)
same,GI50,OVCAR-8,64.9 µM (inactive)
same,GI50,PC-3,38.6 µM (inactive)
same,GI50,RPMI-8226,45.2 µM (inactive)
same,GI50,RXF 393,57.7 µM (inactive)
same,GI50,SF-295,19.9 µM (inactive)
same,GI50,SF-539,39.6 µM (inactive)
same,GI50,SK-MEL-28,36.5 µM (inactive)
same,GI50,SK-MEL-2,65.8 µM (inactive)
same,GI50,SK-MEL-5,29.4 µM (inactive)
same,GI50,SK-OV-3,63.2 µM (inactive)
same,GI50,SN12C,71.9 µM (inactive)
same,GI50,SNB-19,52.6 µM (inactive)
same,GI50,SNB-75,47.8 µM (inactive)
same,GI50,SR,71.6 µM (inactive)
same,GI50,SW-620,37.5 µM (inactive)
same,GI50,T47D,61.8 µM (inactive)
same,GI50,TK-10,84.1 µM (inactive)
same,GI50,U-251,57.9 µM (inactive)
same,GI50,UACC-257,29.8 µM (inactive)
same,GI50,UACC-62,21.4 µM (inactive)
same,GI50,UO-31,20.6 µM (inactive)
